Measurements: patent US6953671B2, “Plasma phospholipid transfer protein (PLTP) deficiency represents an anti-atherogenic state and PLTP inhibitor has anti-atherosclerosis action” (The Trustees of Columbia University in the City of New York, priority 2001, dated 2005)
Each block holds one molecule with its values, some of them ahead of it. Where a SMILES comes first, the peptide text is derived from it. [ ]: non-standard residue; d: D form. Nle = CCCC[C@H](N)C(=O)O

Tests used:
[1] = system: hepatocytes from apoBTg/PLTP0 and apoBTg mice; assay: apoB in cell lysates of radiolabeled primary hepatocytes with or without ALLN; format: cell-based, mouse; details: 40 μg/ml ALLN, 30 min labeling; especially PLTP deficient cells
Experimental: (§1) Primary hepatocyte culture, immunoprecipitation and analysis of apoB or albumin from culture medium or cel lysate were performed as described previously^18. A, pulse change experiment, apoB in the cell media; B, pulse chase experiment, apoB in the cell lysate; C, determination of apoB secretion rate in the presence and absence of the proteoscflal inhibitor ALLN. Hepatocytes from apoBTg/PLTP0 and apoBTg mice were radiolabeled continuously with ^35Smethionine/cystein with or without 40 μg/ml ALLN fcr 30 mm. Cells ware lysed and lysates immunoprecipitated with apoB antibody. Samples were separated on SDS PAGE. D, determination of apoB secretion rate in the presence and absence of heparin. Hepatocytes from apoBTG/PLTP0 and apoBTg mice were radiolabeled continuously with ^35Smethionine/cystein with or without 10 mg/ml heparin for 3 hr. […]
(§2) Immunoprecipitation and analysis of apoB from culture medium or cell lysate: The primary hepatocytes were allowed to attach to dishes for 90 minutes. […] At each chase time point (30 minutes, 1 hour and 2 hours), medium apoB and cell lysate apoB were immunoprecipitated by apoB antibody together with protein A/G agarose, the precipitates were size-fractionated on a 4% SDS PAGE gel, the gel was dried, and the incorporation of ^35S into apoB48 and apoB100 was assessed with a Fuji Bio-Imaging Analyzer (Fuji Medical Systems, Stamford, Conn.).

[2] = target: plasma phospholipid transfer protein (PLTP) (UniProt P55065); assay: PLTP inhibition assay (radiolabeled phospholipid transfer from vesicles to HDL by plasma); format: biochemical; details: 3 μl plasma, 0-50 μM compound, 400 μl assay
Experimental: PLTP activity assays: Egg phosphatidylcholine (10 μmol) containing 10 nmol of [3H]PC (L-a-dipalmitoyl-[2-palmitoyl-9,10-3H(N)]-phosphatidylcholine) was dried under a stream of nitrogen, resuspended in 1 ml of a solution of 10 mM Tris, 150 mM NaCl, 1 mM ethylenediaminetetraacetic acid (EDTA) (pH 7.4), and then probe-sonicated and centrifuged. Transfer of radiolabeled phospholipid was measured by incubating 3 μl of plasma with radiolabeled phospholipid vesicles (125 nmol PC) and HDL (250 μg protein) in a final volume of 400 μl at 37° C. for 1 hour.
The following compound, which is a known cholesteryl ester transfer protein (CETP) inhibitor (compound No. 3 in Okamoto et al.^38) was dissolved in dimethlysulfonyl oxide (DMSO) (stock solution 2 mM): [drawing 1] A final volume of 400 μl assay system was prepared containing phosphatidylcholine, HDL, 3 μl of plasma, and 0-50 μM of the compound. Vesicles were subsequently precipitated by the addition of 300 μl of a solution of 500 mM NaCl, 215 mM MnCl2, 445 U/ml heparin, and the radioactivity of a 500-μl aliquot of the supernatant was measured.

[3] = system: hepatocytes from apoBTg/PLTP0 and apoBTg mice; assay: apoB/BLp accumulation in media of primary hepatocytes with or without heparin; format: cell-based, mouse; details: 10 mg/ml heparin, 3 hr
Experimental: as §1, §2

Molecule: CCCC[C@@H](C=O)NC(=O)[C@H](CC(C)C)NC(=O)[C@H](CC(C)C)NC(C)=O [ALLN, N-acetyl-leu-leu-norleu-AL] (Ac-Leu-Leu-[Nle]-aldehyde)
levels of apoB within cells [1]: increased levels of apoB within cells

Ki [2]: 15 µM
Molecule: CC(C)(C)C(=O)Nc1ccccc1SSc1ccccc1NC(=O)C(C)(C)C [compound #3]

Molecule: heparin
accumulation of BLp in media ([3]; PLTP deficient hepatocytes): failed to increase BLp accumulation | accumulation of BLp in media ([3]; hepatocytes from apoB transgenic mice): increased the accumulation of BLp in media
